# Reference: patent publication US10100307B2, “Use of a reverse-transcriptase inhibitor in the prevention and treatment of degenerative diseases” (Centre National de la Recherche Scientifique, priority 2014, dated 2018)
# What was measured:
# [1] = test system: Mouse embryonic midbrain neurons; assay: Formation of DSBs (gamma-H2AX foci per neuron) induced by H2O2 oxidative stress in vitro; type: cell-based; details: Stavudine 10 μM; gamma-H2AX labeling; H2O2 for 1 h; FIG. 2A; ***p<0.001, n=6
# Description: (§1) Embryonic midbrain neurons (embryonic day 13.5) are cultured in NBGK medium (Neurobasal® (Life Technologies) supplemented with glutamine (500 μM, SIGMA), glutamic acid (3.3 mg/ml, SIGMA), aspartic acid (3.7 mg/ml, SIGMA), anti-anti and B27® (GIBCO)). A midbrain neuron culture was incubated overnight in the presence of Stavudine (10 μM in 0.9% NaCl). A control culture was treated under the same conditions, with a solution of NaCl (0.9%). The following day, the culture medium was replaced with Neurobasal® medium (Life Technologies) not supplemented with B27® (Life Technologies), containing 5 μM of H2O2 and 10 μM Stavudine/NaCl, for 1 h (FIG. 2). Alternatively, the cells were treated with H2O2 (100 μM) in the presence of B27 for one hour. Stavudine (10 μM) was added twice, 24 hours before and during treatment with H2O2 or lipofection (FIG. 2). The neurons were then fixed with PBS 4% paraformaldehyde (PFA) for 20 min, then treated with glycine (100 mM) in PBS for 10 min. […] The number of gamma-H2AX foci per neuron was counted on several slides, then the mean was taken over more than 30 neurons. […]
# Mouse embryonic midbrain neurons (14 days' gestation), treated or untreated with an RT inhibitor (Stavudine), were subjected to an oxidative stress by addition of H2O2. […] The number of DSBs per neuron was evaluated after γ-H2AX labeling.
# [2] = test system: primary midbrain neurons; assay: Formation of DNA breaks induced by transfection with a plasmid (wt L1) overexpressing LINE-1; type: cell-based, mouse; details: Stavudine 10 μM added 24 hours before and during lipofection; FIG. 2B; ***p<0.001, n=6
# Description: as §1
# [3] = test system: TH+ neurons in the substantia nigra pars compacta; assay: 6-OHDA injection into the substantia nigra (oxidative stress in vivo), stereological count of TH+ neurons; parameters: species or system mice; details: 24 h after injection of 6-OHDA; Stavudine 10 μM injected 30 min before and with 6-OHDA; FIG. 3B; **p<0.01, n=5
# Description: For the 6-OHDA (6-hydroxydopamine) injections, anesthetized mice were placed on a stereotactic device and a burr hole was drilled in the cranium, 3.3 mm caudally and 1 mm laterally from the bregma. The needle of the syringe was aligned over the hole and descended 4 mm from the surface of the cranium, and 6-OHDA (2 μl; 0.8 μg/μl Sigma) or control (NaCl 0.9%) was injected into the SNpc for more than 4 min. For the immunohistological analysis, the mice were sacrificed 6 h, 24 h or 7 days after 6-OHDA injection. For the qRT-PCR analyses, tissues from the SNpc 6 h after 6-OHDA injection were obtained by extracting 1 mm samples from 2 mm thick disks of frozen tissue, using a stereotactic apparatus. The tissues were embedded in OCT, frozen in cooled isopentane, then preserved at -80° C. before being sectioned. 20 μm thick sections of the brain at the SNpc were made. […] The labeled brain sections were visualized using a confocal fluorescence microscope (SP5, Leica). […] The microscopy images were analyzed using the VisioScan T4.18 software (ExploraNova, La Rochelle, France) as described previously ([…]. 2003). The cell numbers were quantified stereologically on sections spaced apart regularly covering all of the rostrocaudal extent of the substantia nigra, using the VisioScan stereology tool. […]
compound,measurement,setting,value
"Cc1cn([C@H]2C=C[C@@H](CO)O2)c(=O)[nH]c1=O [Stavudine, 2′-3′-didehydro-2′-3′-dideoxythymidine]",reduction of the formation of DSBs induced by H2O2,[1],40%
same,formation of DNA breaks induced by wt L1 plasmid overexpressing LINE-1,[2],suppressed
same,number of TH+ neurons in the substantia nigra pars compacta (cell death after oxidative stress in vivo),[3],higher
